# Where a SMILES comes first, the peptide text is derived from it. [ ]: non-standard residue; d: D form. The star is where a group is joined. Dolaproine = CO[C@@H]([C@@H]1CCCN1)[C@@H](C)C(=O)O; Dil = CC[C@H](C)[C@H](NC)[C@@H](CC(=O)O)OC; X1 = C[C@@H](N*)[C@@H](O)c1ccccc1; NMeV = CN[C@H](C(=O)O)C(C)C
# Tests used:
# [1] = tested on: C4-2 castrate resistant prostate cancer (CRPC) cells; experiment: Relative viability after drug dose matrix (CellTiter-Glo, Bliss Independence) in C4-2 cells; assay type: cell-based; conditions: for concentrations at which the more than additive reduction occurs / reduction in cancer cell viability of maytansinoid with Plk1 inhibitor versus each alone: C4-2 cells, with onvansertib; for reduction in cancer cell viability of maytansinoid with Plk1 inhibitor versus each alone: five days, free agents, FIGS. 5A and 5B
# Experimental: All cell lines were cultured in a humidified incubator at 37° C. and with 5% CO2, were maintained sub-confluent and used for no more than 20 passages. Media was supplemented with 10% fetal bovine serum (FBS), contained 2 mM glutamine and lacked antibiotics, unless otherwise noted. A549, BT-20, CCD-1112sk, CCD-18co, CFPAC1, HCT 116, HeLa, HT-29, HT55, MCF7, MDA-MB-157, MDA-MB-231, MDA-MB-415, MDA-MB-436, MDA-MB-453, MDA-MB-468, SW48, T98G, U-2 OS, U-87 MG, CAOV3, COV362, and JIMT1 cells were grown in DMEM; 22RV1, AU565, C4-2, CAL33, COL0205,HCC38, HCT-15, KYSE150, LNCaP, LOVO, NCI-H1299, PC-3, ZR-75-1, HCC1419, HCC1569, HCC1954, ZR7530, OVCAR-4, OVCAR8 cells were grown in RPMI 1640; HT1197, HT1376, J82, UMUC3 cells were grown in MEM; OV90, TOV122D, TOV21G cells were grown in 1:1 MCDB105:Medial99 15% FBS; 59M, OAW28, OAW42 cells were grown in Advanced DMEM 0.023 IU/ml insulin; ES2, SKOV3 cells were grown in McCoy's 5A; JHOS2, JHOS4 cells were grown in 1:1 DMEM:HamF12; HUVEC cells were grown in EBM with EGM™-2 BULLETKIT™
# For dose response experiments and experiments that examine synergy as a measure of change in relative viability, cells were grown in 384-well plates in triplicate. The following day the cells were subjected to a drug dose matrix that consisted of increasing concentrations of a Plk inhibitor, increasing concentrations of a microtubule polymerization inhibitor, and all pairwise combinations. Drugs were dissolved in DMSO and diluted in the appropriate cell growth media while maintaining a constant final concentration of DMSO. After five days, relative viability was assessed using […]-GLO™ (Promega) Luminescent Cell Viability Assay according to the manufacturer's recommendations. Luminescence was measured using an […]™ M200 Pro plate reader (Tecan Group Ltd.). […] The dose response plots (for example FIG. 1A) show sensitivity to increasing concentrations of a microtubule polymerization inhibitor in the absence or presence of a constant amount of Plk inhibitor. Bars represent the standard error of the mean. The concentration of Plk inhibitor chosen to presented was based on a ˜20-30% reduction of viability when that drug was used at that dose in isolation. The entire amount of greater-than-additive response observed in the dose matrix is the integrated volume between the observed and expected surfaces generated by the response matrix and is also known as Bliss Volume. Bliss Volume synergy metrics are presented in FIG. 3 as the fractional change in volume between the expected and observed response surfaces.
# [2] = tested on: Her2+ breast cancer cell lines; experiment: Viability dose matrix in panel of six Her2+ breast cancer cell lines; assay type: cell-based; conditions: DM1 with onvansertib, five days, majority of six cell lines, FIGS. 8A-8F
# Experimental: (§1) All cell lines were cultured in a humidified incubator at 37° C. and with 5% CO2, were maintained sub-confluent and used for no more than 20 passages. Media was supplemented with 10% fetal bovine serum (FBS), contained 2 mM glutamine and lacked antibiotics, unless otherwise noted. […]
# (§2) For dose response experiments and experiments that examine synergy as a measure of change in relative viability, cells were grown in 384-well plates in triplicate. […] After five days, relative viability was assessed using […]-GLO™ (Promega) Luminescent Cell Viability Assay according to the manufacturer's recommendations. Luminescence was measured using an […]™ M200 Pro plate reader (Tecan Group Ltd.). […]
# [3] = tested on: growth factor activated endothelial cells; conditions: cited from earlier work
# [4] = tested on: ovarian cancer cell lines; experiment: Viability dose matrix in panel of 14 ovarian cancer cell lines; assay type: cell-based; conditions: DM4 with onvansertib, five days, FIGS. 6A-6N
# Experimental: as §1, §2
# [5] = relative to 2-ME; cited from earlier work
# [6] = tested on: variety of tumors, including those that express the multidrug resistance (MDR) phenotype; conditions: read-out: IC50 against a variety of tumors; cited from earlier work
# non-cancer cells = experiment: Combination synergy (Bliss Volume) in non-cancer cell lines; assay type: cell-based; conditions: TH588 with a Plk1 inhibitor; FIG. 3
# Experimental: as §1, §2
# C4-2 CRPC cells [7] = experiment: Flow cytometry for apoptotic cells (cleaved caspase-3); assay type: cell-based; conditions: TH588 with Plk1 inhibitor BI2536, 0 to 48 hours, FIG. 1C
# Experimental: (§3) C4-2 CRPC cells were plated in 6-well plates at a density of 300,000 cells per well and a total volume of 3 mls. The next day drugs were diluted in the appropriate growth media while maintaining a constant concentration of DMSO and added to the wells. After the indicated amount of time, cells were harvested by trypsinization. The media, trypsin and PBS wash were collected together to avoid loss of loosely attached or detached cells. Cells were fixed in 4% formaldehyde in PBS for 15 minutes, washed with PBS containing 1% bovine serum albumin (PBS-BSA), and then stored in methanol at −20° C. overnight. Cells were then washed twice in PBS-BSA 0.1% Tween-20, incubated with primary antibodies overnight at 4° C., washed with PBS-BSA 0.1% Tween-20 and incubated for 1 hour with fluorescent-dye conjugated secondary antibodies (diluted 1:200, Alexa Fluor, Molecular Probes) at room temperature for 1 hour. Primary antibodies included anti-phospho-serine 10 histone H3 (clone 3H10, Millipore) and anti-active caspase-3 (clone C92-605, BD Pharmingen). The fixed cells were then washed with PBS-BSA 0.1% Tween-20 and resuspended in PBS containing 1 μg/ml 4,6-diamidino-2-phenylindole (DAPI, Molecular Probes) to stain DNA and analyzed using a BD™ LSRII flow cytometer (Becton Dickinson) and the FLOWJO™ software package. Shown is the average of three replicates±standard error of the mean.
# tubulin = experiment: Microtubule polymerization in vitro; assay type: biochemical
# C4-2 CRPC cells [8] = experiment: Flow cytometry for mitotic cells (phospho-Ser10 Histone H3); assay type: cell-based; conditions: TH588 with Plk1 inhibitor BI2536, 0 to 48 hours, FIG. 1B
# Experimental: as §3
# [9] = tested on: C4-2 CRPC xenograft tumors; experiment: Microwell tumor-implantable device, apoptotic index in xenograft tumors; assay type: in vivo, mice; conditions: half-dose BI2536 with half-dose TH588 versus monotherapy wells, 24 hours after implantation, p<0.01, FIG. 2B
# Experimental: C4-2 CRPC xenograft tumors were grown in four to six week old castrated male NCR nude mice. Five million C4-2 cells in 200 μl serum free media, mixed 1:1 with growth factor reduced […]® (Invitrogen) were injected into the hind flank subcutaneously using a 23 gauge needle. Tumors took four to eight weeks to grow. Microdose drug delivery devices were manufactured, implanted, and analyzed as described by Jonas, O., et al. Science Translational Medicine, 7(284): 284ra57 (2015). […] Tumors were excised 24 hours after device implantation, fixed in 10% formalin for 24 hours, and embedded in paraffin. Sections were stained with cleaved caspase-3 antibody (Cell Signaling Technologies, 9664) followed by detection with horseradish peroxidase conjugated secondary antibody and diaminobenzidine with hematoxylin used as a counterstain. Images were viewed using an EVOS® Cell Imaging System (Invitrogen) microscope, and scored using ImageJ in a blinded manner. Apoptotic index (Al) was calculated as the percentage of cells that were cleaved caspase-3-positive within […] of the reservoir-tissue interface.
# [10] = tested on: cancer cell lines of various origin; experiment: Combination synergy (Bliss Volume) in cancer cell lines of various origin; assay type: cell-based; conditions: TH588 with a Plk1 inhibitor; approximately thirty cell lines, in the majority of these; FIG. 3
# Experimental: as §1, §2
# T47D cells [11] = conditions: read-out: EC50 for caspase activation; cited from earlier work
# T47D cells [12] = conditions: read-out: GI50, cell proliferation; cited from earlier work
# [13] = cited from earlier work
# [14] = oral administration; cited from earlier work
# [15] = tested on: panel of >50 other kinases; conditions: in vitro; cited from earlier work
# [16] = tested on: Her2+ trastuzumab-resistant breast cancer; conditions: via CDK1-dependent phosphorylation and inactivation of Bcl-2/xL; cited from earlier work
# [17] = tested on: HCT116, NCI-H460, and taxane-resistant CXB1 colon carcinoma xenografts; parameters: dose or concentration left out as unconfirmed; conditions: cited from earlier work
# UMUC3 = experiment: Viability dose matrix in UMUC3 bladder cancer cells; assay type: cell-based; conditions: MMAE with onvansertib, five days, FIG. 7D
# Experimental: as §1, §2
# [18] = tested on: bladder cancer cell lines; experiment: Viability dose matrix in panel of four bladder cancer cell lines; assay type: cell-based; conditions: MMAE with onvansertib, five days, FIGS. 7A-7D
# Experimental: as §1, §2
compound,measurement,setting,value
COc1cc2cc(c1Cl)N(C)C(=O)C[C@H](OC(=O)[C@H](C)N(C)C(=O)CCS)C1(C)O[C@H]1[C@H](C)[C@@H]1C[C@@](O)(NC(=O)O1)[C@H](OC)/C=C/C=C(\C)C2 (some centres unmarked) [DM1],concentrations at which the more than additive reduction occurs,[1],sub-nanomolar
same,reduction in cancer cell viability of maytansinoid with Plk1 inhibitor versus each alone,[1],more than the additive reduction
same,response to combined Plk1 inhibitor and DM1,[2],greater than additive response
COc1cc(C(=O)c2c(C)oc3c(O)c(OC)ccc23)cc(OC)c1OC [BNC-105],selectivity for growth factor activated endothelial cells compared to quiescent HUVECs,[3],81 fold
COc1cc2cc(c1Cl)N(C)C(=O)C[C@H](OC(=O)[C@H](C)N(C)C(=O)CCC(C)(C)S)C1(C)O[C@H]1[C@H](C)[C@@H]1C[C@@](O)(NC(=O)O1)[C@H](OC)/C=C/C=C(\C)C2 (some centres unmarked) [DM4],concentrations at which the more than additive reduction occurs,[1],sub-nanomolar
same,reduction in cancer cell viability of maytansinoid with Plk1 inhibitor versus each alone,[1],more than the additive reduction
same,cell lines with greater than additive responses to the drug combination,[4],Ten of fourteen
COc1cc2c(cc1O)CC[C@@H]1[C@@H]2CC[C@]2(C)C(=O)CC[C@@H]12 [2-methoxyestrone],loss in activity in vitro on oxidation of 2-ME to 2-methoxyestrone,[5],10-to 100 fold
COc1ccc(NS(=O)(=O)c2c(F)c(F)c(F)c(F)c2F)cc1F [T138067],IC50,[6],11 to 165 nM
Nc1nc(NC2CC2)cc(-c2cccc(Cl)c2Cl)n1 [TH588],effect of killing by the drug combination in non-cancer cells,non-cancer cells,not more than additive
same,apoptotic cancer cell killing with the combination,C4-2 CRPC cells [7],greater than additive
same,"effect of killing cancer cells by the combination of Plk1 inhibitors with TH588, versus each alone","[1]; C4-2 CRPC cells, TH588 with BI2536, five days, Bliss Independence model, FIG. 1A",more than additive
same,microtubule polymerization in vitro,tubulin,inhibits microtubule polymerization
same,mitotic arrest with the combination,C4-2 CRPC cells [8],greater than additive
same,effect on tumor cell killing in vivo (cleaved caspase-3 positive cells),[9],more-than-additive
same,effect of tumor cell killing using the combination treatment,[10],more than additive
COc1ccc(N(C)c2nc(Cl)nc3ccccc23)cc1 [MPI-0441138],EC50,T47D cells [11],2 nM
same,GI50,T47D cells [12],2 nM
COc1ccc(S(=O)(=O)Nc2cccnc2Nc2ccc(O)cc2)cc1 [ABT-751],maximum tolerated dose,"[13]; daily schedule, phase I",250 mg/day
same,overall mean Tmax,[14],about 2 h
CC[C@@H]1C(=O)N(C)c2cnc(Nc3ccc(C(=O)N[C@H]4CC[C@H](N5CCN(CC6CC6)CC5)CC4)cc3OC)nc2N1C(C)C [BI6727],inhibitory activity against a panel of >50 other kinases,[15],no inhibitory activity
same,effect of the combination of TH588 with a Plk1 inhibitor,"[1]; each Plk1 inhibitor in combination with TH588, relative viability",more than additive
same,effect on T-DM1 resistance,[16],overcomes T-DM1 resistance
same,recommended dose for further development,"[13]; advanced solid tumors, i.v. once every 3 weeks, based on overall tolerability",300 mg
same,MTD,"[13]; advanced solid tumors, i.v. once every 3 weeks",400 mg
same,MTD in combination with afatinib,[13]; advanced solid tumors,300 mg
same,growth of human carcinoma xenografts,[17],significantly inhibits the growth
"CC[C@H](C)[C@@H]([C@@H](CC(=O)N1CCC[C@H]1[C@H](OC)[C@@H](C)C(=O)N[C@H](C)[C@@H](O)c1ccccc1)OC)N(C)C(=O)[C@@H](NC(=O)[C@@H](NC)C(C)C)C(C)C [MMAE, monomethyl auristatin E] (H-[NMeV]V[Dil][Dolaproine]-X1)",response to the combination in UMUC3,UMUC3,very notable response
same,response to the combination in bladder cancer cell lines,[18],Varying amounts of greater than additive responses

# — patent US20230263783A1, “CANCER TREATMENT BY COMBINED INHIBITION OF POLO-LIKE KINASE AND MICROTUBULE POLYMERIZATION” (Massachusetts Institute of Technology, priority 2022, published 2023)
